Reference: publication doi:10.1101/2021.04.08.439011v1 (biorxiv, 2021)
Read-outs that look alike come from different tables or passages of the source.

Experiments:
[1] = target: MATK (Homo sapiens, UniProt P42679); details: 1 µM; binder
[2] = target: PHKG1 (Homo sapiens, UniProt Q16816); details: 1 µM; binder
[3] = target: CSNK1A1L (Homo sapiens, UniProt Q8N752); details: 1 µM; binder
[4] = target: MST3 (Homo sapiens, UniProt Q9Y6E0); details: 1 µM; binder
[5] = target: WNK4 (Homo sapiens, UniProt Q96J92); details: 1 µM; binder
[6] = target: MAP4K5 (Homo sapiens, UniProt Q9Y4K4); details: 1 µM; binder
[7] = target: NLK (Homo sapiens, UniProt Q9UBE8); details: 1 µM; binder
[8] = target: ABL1(H396P) (Homo sapiens, UniProt P00519, H396P); details: 1 µM, binder
[9] = target: FGR (Homo sapiens, UniProt P09769); details: 1 µM; binder
[10] = target: CLK2 (Homo sapiens, UniProt P49760); details: 1 µM; binder
[11] = target: AKT2 (Homo sapiens, UniProt P31751); details: 1 µM; binder
Chain of AKT2 (P31751 whole entry): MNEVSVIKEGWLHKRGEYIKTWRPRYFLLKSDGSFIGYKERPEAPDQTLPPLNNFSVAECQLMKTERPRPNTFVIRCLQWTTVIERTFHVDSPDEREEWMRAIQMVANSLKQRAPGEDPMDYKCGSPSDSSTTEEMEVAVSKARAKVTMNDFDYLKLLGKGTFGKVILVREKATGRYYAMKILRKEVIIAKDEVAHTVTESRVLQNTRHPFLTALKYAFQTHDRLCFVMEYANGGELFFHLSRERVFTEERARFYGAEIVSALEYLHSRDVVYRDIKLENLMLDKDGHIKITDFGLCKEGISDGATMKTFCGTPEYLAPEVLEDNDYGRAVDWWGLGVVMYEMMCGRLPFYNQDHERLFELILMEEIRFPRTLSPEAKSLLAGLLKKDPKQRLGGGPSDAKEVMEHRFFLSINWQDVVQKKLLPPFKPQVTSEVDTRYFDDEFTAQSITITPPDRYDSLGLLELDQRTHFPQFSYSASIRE

[12] = target: p38-alpha (Homo sapiens, UniProt Q16539); details: 1 µM; binder
Chain of p38-alpha (Q16539 whole entry): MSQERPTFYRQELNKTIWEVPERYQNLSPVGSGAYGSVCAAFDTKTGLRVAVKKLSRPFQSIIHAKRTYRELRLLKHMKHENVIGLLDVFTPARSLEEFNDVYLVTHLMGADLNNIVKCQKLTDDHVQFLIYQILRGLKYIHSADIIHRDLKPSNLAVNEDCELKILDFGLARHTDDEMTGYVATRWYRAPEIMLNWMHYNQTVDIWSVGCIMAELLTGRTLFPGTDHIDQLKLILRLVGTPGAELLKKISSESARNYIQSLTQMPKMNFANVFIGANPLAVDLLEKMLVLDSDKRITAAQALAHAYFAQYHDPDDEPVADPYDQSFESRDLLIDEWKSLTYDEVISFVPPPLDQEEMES

[13] = target: ALK(L1196M) (Homo sapiens, UniProt Q9UM73, L1196M); details: 1 µM; binder
[14] = target: EPHA6 (Homo sapiens, UniProt Q9UF33); details: 1 µM; binder
[15] = target: IKK-alpha (Homo sapiens, UniProt O15111); details: 1 µM; binder
Chain of IKK-alpha (O15111 whole entry): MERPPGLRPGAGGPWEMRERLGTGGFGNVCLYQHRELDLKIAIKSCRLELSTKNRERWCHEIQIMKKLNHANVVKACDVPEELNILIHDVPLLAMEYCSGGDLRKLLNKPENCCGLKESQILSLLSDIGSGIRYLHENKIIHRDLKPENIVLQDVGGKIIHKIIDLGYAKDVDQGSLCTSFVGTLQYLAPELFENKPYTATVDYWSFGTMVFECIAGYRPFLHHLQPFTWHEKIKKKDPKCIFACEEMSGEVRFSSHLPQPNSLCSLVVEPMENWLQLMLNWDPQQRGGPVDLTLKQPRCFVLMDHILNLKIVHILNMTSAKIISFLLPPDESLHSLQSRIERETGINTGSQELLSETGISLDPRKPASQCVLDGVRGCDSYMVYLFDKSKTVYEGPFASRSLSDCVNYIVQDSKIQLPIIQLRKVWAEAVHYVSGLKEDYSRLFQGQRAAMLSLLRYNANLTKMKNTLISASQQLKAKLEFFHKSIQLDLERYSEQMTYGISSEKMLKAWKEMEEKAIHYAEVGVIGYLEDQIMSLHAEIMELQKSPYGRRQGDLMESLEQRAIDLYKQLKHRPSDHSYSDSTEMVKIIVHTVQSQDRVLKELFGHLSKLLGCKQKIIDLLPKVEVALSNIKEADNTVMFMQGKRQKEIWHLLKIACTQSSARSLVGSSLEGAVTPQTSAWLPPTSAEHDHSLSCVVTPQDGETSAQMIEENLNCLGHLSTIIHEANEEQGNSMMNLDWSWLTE

[16] = target: JNK2 (Homo sapiens, UniProt P45984); details: 1 µM; binder
[17] = target: PLK2 (Homo sapiens, UniProt Q9NYY3); details: 1 µM; binder
[18] = target: FES (Homo sapiens, UniProt P07332); details: 1 µM; binder
[19] = target: PIK3CB (Homo sapiens, UniProt P42338); details: 1 µM; binder
[20] = target: MST1R (Homo sapiens, UniProt Q04912); details: 1 µM; binder
[21] = target: SIK2 (Homo sapiens, UniProt Q9H0K1); details: 1 µM; binder
Chain of SIK2 (Q9H0K1 whole entry): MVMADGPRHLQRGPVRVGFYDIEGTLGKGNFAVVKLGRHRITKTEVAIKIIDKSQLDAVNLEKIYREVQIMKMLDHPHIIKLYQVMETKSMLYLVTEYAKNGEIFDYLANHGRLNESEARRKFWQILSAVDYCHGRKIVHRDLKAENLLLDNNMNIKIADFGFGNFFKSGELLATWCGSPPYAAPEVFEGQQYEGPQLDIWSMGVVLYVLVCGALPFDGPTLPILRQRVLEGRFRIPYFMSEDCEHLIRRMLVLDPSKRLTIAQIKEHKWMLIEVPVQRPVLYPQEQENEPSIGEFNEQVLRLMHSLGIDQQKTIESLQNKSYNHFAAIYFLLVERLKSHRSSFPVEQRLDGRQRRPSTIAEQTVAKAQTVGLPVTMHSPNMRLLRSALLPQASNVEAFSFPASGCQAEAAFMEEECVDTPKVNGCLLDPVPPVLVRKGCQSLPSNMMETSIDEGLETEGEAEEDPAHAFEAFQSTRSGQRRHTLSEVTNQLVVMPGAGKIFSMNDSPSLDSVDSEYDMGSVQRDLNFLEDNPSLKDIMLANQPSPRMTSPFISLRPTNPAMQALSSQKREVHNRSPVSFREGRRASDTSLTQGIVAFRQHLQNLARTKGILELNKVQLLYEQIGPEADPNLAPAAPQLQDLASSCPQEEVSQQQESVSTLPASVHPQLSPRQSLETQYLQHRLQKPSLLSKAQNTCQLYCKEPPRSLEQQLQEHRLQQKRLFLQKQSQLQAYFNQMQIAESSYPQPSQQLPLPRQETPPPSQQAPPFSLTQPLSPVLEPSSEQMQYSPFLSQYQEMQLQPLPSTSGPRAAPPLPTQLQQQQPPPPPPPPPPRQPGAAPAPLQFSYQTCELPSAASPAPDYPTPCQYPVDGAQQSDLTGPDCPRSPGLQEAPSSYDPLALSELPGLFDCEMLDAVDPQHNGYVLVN

[22] = target: STK36 (Homo sapiens, UniProt Q9NRP7); details: 1 µM; binder
[23] = target: IRAK1 (Homo sapiens, UniProt P51617); details: 1 µM; binder
[24] = target: PIM3 (Homo sapiens, UniProt Q86V86); details: 1 µM; binder
[25] = target: LYN (Homo sapiens, UniProt P07948); details: 1 µM; binder
Chain of LYN (P07948 whole entry): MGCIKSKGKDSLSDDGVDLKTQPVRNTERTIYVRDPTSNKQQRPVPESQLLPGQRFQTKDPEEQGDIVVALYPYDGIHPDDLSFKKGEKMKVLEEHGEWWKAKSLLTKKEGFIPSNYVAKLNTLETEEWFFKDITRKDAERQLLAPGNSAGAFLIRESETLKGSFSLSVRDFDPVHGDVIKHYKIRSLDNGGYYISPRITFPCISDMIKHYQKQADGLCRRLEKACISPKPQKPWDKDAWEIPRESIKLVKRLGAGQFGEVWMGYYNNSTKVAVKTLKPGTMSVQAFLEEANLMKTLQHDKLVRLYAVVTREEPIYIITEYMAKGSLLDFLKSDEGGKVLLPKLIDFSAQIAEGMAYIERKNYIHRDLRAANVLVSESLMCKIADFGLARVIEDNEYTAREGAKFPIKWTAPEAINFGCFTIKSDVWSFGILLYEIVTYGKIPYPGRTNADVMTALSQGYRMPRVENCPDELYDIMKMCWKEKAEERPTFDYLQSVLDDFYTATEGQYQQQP

[26] = target: TGFBR1 (Homo sapiens, UniProt P36897); details: 1 µM; binder
Chain of TGFBR1 (P36897 whole entry): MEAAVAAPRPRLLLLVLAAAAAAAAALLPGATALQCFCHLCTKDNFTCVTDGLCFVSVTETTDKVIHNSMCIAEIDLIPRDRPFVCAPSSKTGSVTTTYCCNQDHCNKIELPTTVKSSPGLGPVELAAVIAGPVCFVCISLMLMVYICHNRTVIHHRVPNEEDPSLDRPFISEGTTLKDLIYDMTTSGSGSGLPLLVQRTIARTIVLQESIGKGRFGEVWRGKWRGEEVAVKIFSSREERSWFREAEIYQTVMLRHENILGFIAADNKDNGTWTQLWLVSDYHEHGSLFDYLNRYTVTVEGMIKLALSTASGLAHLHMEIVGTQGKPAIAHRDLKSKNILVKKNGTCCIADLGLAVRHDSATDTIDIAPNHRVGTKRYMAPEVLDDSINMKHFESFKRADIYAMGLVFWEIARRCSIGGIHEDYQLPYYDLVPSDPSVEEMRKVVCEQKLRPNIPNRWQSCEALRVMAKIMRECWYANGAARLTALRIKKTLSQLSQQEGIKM

[27] = target: CLK3 (Homo sapiens, UniProt P49761); details: 1 µM; binder
[28] = target: ACVR1 (Homo sapiens, UniProt Q04771); details: 1 µM; binder
[29] = target: CSK (Homo sapiens, UniProt P41240); details: 1 µM; binder
Chain of CSK (P41240 whole entry): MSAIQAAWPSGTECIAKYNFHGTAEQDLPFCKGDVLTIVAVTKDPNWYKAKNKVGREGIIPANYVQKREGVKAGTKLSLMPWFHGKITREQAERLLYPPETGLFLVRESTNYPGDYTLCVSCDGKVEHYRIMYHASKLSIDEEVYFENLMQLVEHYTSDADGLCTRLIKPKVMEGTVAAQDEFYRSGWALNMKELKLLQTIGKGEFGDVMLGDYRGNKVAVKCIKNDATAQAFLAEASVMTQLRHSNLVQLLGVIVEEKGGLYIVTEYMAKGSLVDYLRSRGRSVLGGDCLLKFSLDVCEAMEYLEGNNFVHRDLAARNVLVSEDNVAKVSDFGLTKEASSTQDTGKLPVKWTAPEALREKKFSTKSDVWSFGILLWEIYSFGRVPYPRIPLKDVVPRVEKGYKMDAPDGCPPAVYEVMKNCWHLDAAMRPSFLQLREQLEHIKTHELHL

[30] = target: MLK1 (Homo sapiens, UniProt P80192); details: 1 µM; binder

Chain of PHKG1 (Q16816 whole entry): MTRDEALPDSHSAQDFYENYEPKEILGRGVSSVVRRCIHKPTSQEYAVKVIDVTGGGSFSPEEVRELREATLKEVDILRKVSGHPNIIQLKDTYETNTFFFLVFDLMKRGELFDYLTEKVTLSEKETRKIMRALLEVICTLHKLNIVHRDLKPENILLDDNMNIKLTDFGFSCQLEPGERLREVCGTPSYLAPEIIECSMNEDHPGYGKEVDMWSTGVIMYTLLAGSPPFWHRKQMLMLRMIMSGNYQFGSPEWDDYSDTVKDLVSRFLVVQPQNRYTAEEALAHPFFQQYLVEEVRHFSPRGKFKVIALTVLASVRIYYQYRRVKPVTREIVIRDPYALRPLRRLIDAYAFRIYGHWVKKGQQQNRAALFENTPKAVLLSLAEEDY

## CNc1ncc2cc(-c3ccc(-c4cccc(C)n4)cc3Cl)c(=O)n(C[C@H]3OC[C@H](N)CO3)c2n1 [compound 6, G-5555]
[1]
  Percent Control: 100%
[2]
  Percent Control: 100%
[3]
  Percent Control: 100%
[4]
  Percent Control: 1.7%
[5]
  Percent Control: 18%
[6]
  Percent Control: 5.3%
[7]
  Percent Control: 17%
[8]; nonphosphorylated
  Percent Control: 56%
[8]; phosphorylated
  Percent Control: 94%
[9]
  Percent Control: 100%
[10]
  Percent Control: 100%
[11]
  Percent Control: 100%
[12]
  Percent Control: 100%
[13]
  Percent Control: 100%
[14]
  Percent Control: 100%
[15]
  Percent Control: 98%
[16]
  Percent Control: 75%
[17]
  Percent Control: 84%
[18]
  Percent Control: 84%
[19]
  Percent Control: 97%
[20]
  Percent Control: 48%
[21]
  Percent Control: 0.8%
[22]
  Percent Control: 2.9%
[23]
  Percent Control: 49%
[24]
  Percent Control: 100%
[25]
  Percent Control: 74%
[26]
  Percent Control: 100%
[27]
  Percent Control: 100%
[28]
  Percent Control: 100%
[29]
  Percent Control: 85%
[30]
  Percent Control: 96%
